# Test results published in ChEMBL document CHEMBL3627682, “Exploration of the structure-activity relationship of 1,2,4-oxadiazole antibiotics” (2015).
# Tests used:
# Type in all cases: functional
# Staphylococcus aureus [1] = assay: Antibacterial activity against Staphylococcus aureus ATCC 29213
# Enterococcus faecalis [2] = assay: Antibacterial activity against Enterococcus faecalis 201
# Enterococcus faecalis [3] = assay: Antibacterial activity against Enterococcus faecalis ATCC 29212
# Staphylococcus aureus [4] = assay: Antibacterial activity against vancomycin-resistant Staphylococcus aureus VRS2
# Bacillus cereus = assay: Antibacterial activity against Bacillus cereus ATCC 13061
# Staphylococcus aureus [5] = assay: Antibacterial activity against methicillin, oxacillin, and tetracycline-resistant and vancomycin and linezolid-susceptible Staphylococcus aureus NRS100 COL expressing mecA
# Enterococcus faecium [6] = assay: Antibacterial activity against vancomycin-resistant Enterococcus faecium 106
# [7] = test system: Staphylococcus haemolyticus; assay: Antibacterial activity against Staphylococcus haemolyticus ATCC 29970
# Enterococcus faecalis [8] = assay: Antibacterial activity against vancomycin-resistant Enterococcus faecalis 99
# Staphylococcus aureus [9] = assay: Antibacterial activity against methicillin, oxacillin, and tetracycline-resistant and vancomycin and linezolid-susceptible Staphylococcus aureus ATCC 27660 expressing mecA
# Enterococcus faecium [10] = assay: Antibacterial activity against Vancomycin-susceptible Enterococcus faecium 119-39A
# [11] = test system: Staphylococcus epidermidis; assay: Antibacterial activity against Staphylococcus epidermidis ATCC 35547
# Staphylococcus aureus [12] = assay: Antibacterial activity against ciprofloxacin, gentamicin, oxacillin, penicillin, and linezolid-resistant Staphylococcus aureus NRS120 expressing mecA
# Staphylococcus aureus [13] = assay: Antibacterial activity against ciprofloxacin, gentamicin, oxacillin, penicillin, and linezolid-resistant Staphylococcus aureus NRS119 expressing mecA
# Staphylococcus aureus [14] = assay: Antibacterial activity against vancomycin-resistant Staphylococcus aureus VRS1
# Enterococcus faecium [15] = assay: Antibacterial activity against vancomycin-resistant Enterococcus faecium C68
# Bacillus licheniformis = assay: Antibacterial activity against Bacillus licheniformis ATCC 12759
smiles,measurement,setting,value
Oc1ccc(-c2nc(-c3ccc4sccc4c3)no2)cc1,MIC,Staphylococcus aureus [1],≥ 128 µg/mL
Cn1ccc2cc(-c3noc(-c4ccc(O)cc4)n3)ccc21,MIC,Staphylococcus aureus [1],8 µg/mL
Clc1c[nH]nc1-c1nc(-c2ccc(N3CCNCC3)cc2)no1,MIC,Staphylococcus aureus [1],≥ 128 µg/mL
[N-]=[N+]=Nc1cc(Oc2ccc(C(F)(F)F)cc2)ccc1-c1noc(-c2ccc(O)cc2)n1,MIC,Staphylococcus aureus [1],≥ 128 µg/mL
Oc1ccc(-c2nc(-c3ccc(Oc4ccc(C(F)(F)F)cc4)cc3Cl)no2)cc1,MIC,Enterococcus faecalis [2],4 µg/mL
same,MIC,Enterococcus faecalis [3],4 µg/mL
same,MIC,Staphylococcus aureus [4],2 µg/mL
same,MIC,Bacillus cereus,4 µg/mL
same,MIC,Staphylococcus aureus [5],8 µg/mL
same,MIC,Enterococcus faecium [6],4 µg/mL
same,MIC,[7],4 µg/mL
same,MIC,Enterococcus faecalis [8],4 µg/mL
same,MIC,Staphylococcus aureus [9],8 µg/mL
same,MIC,Enterococcus faecium [10],4 µg/mL
same,MIC,[11],4 µg/mL
same,MIC,Staphylococcus aureus [12],4 µg/mL
same,MIC,Staphylococcus aureus [13],4 µg/mL
same,MIC,Staphylococcus aureus [1],2 µg/mL
same,MIC,Staphylococcus aureus [14],2 µg/mL
same,MIC,Enterococcus faecium [15],4 µg/mL
same,MIC,Bacillus licheniformis,2 µg/mL
Oc1ccc(-c2nc(-c3ccc4c(ccn4Cc4ccccc4)c3)no2)cc1,MIC,Staphylococcus aureus [1],128 µg/mL
Cl.Oc1ccc(-c2nc(-c3ccc(N4CCCCC4)cc3)no2)cc1,MIC,Staphylococcus aureus [1],8 µg/mL
CC(C)(C)OC(=O)N1CCN(c2ccc(-c3noc(-c4n[nH]cc4Cl)n3)cc2)CC1,MIC,Staphylococcus aureus [1],≥ 128 µg/mL
Clc1cccc(N2CCN(c3noc(-c4n[nH]cc4Cl)n3)CC2)c1,MIC,Staphylococcus aureus [1],16 µg/mL
CC(=O)Nc1ccc(-c2noc(-c3ccc(O)cc3)n2)cc1,MIC,Staphylococcus aureus [1],≥ 500 µg/mL
c1cc2cc(-c3nc(-c4ccc5c(c4)OCC5)no3)ccc2[nH]1,MIC,Staphylococcus aureus [1],≥ 128 µg/mL
Oc1ccc(-c2nc(N3CCN(c4ccccc4)CC3)no2)cc1,MIC,Staphylococcus aureus [1],≥ 128 µg/mL
Clc1cccc(N2CCN(c3noc(-c4ccc5[nH]ccc5c4)n3)CC2)c1,MIC,Staphylococcus aureus [1],≥ 128 µg/mL
Clc1cc(Cl)cc(N2CCN(c3noc(-c4n[nH]cc4Cl)n3)CC2)c1,MIC,Staphylococcus aureus [1],≥ 128 µg/mL
O=C1OCc2cc(-c3noc(-c4ccc(O)cc4)n3)ccc21,MIC,Staphylococcus aureus [1],≥ 128 µg/mL
O=C1OCc2cc(-c3noc(-c4n[nH]cc4Cl)n3)ccc21,MIC,Staphylococcus aureus [1],≥ 128 µg/mL
Oc1ccc(-c2nc(-c3ccc(Nc4ccccc4)cc3)no2)cc1,MIC,Staphylococcus aureus [1],4 µg/mL
O=S(=O)(c1ccccc1)c1ccc(-c2noc(-c3ccc(O)cc3)n2)cc1,MIC,Staphylococcus aureus [1],≥ 128 µg/mL
Cn1ccc2ccc(-c3noc(-c4n[nH]cc4Cl)n3)cc21,MIC,Staphylococcus aureus [1],≥ 128 µg/mL
Oc1ccc(-c2nc(-c3ccc(Oc4ccc(C(F)(F)F)cc4)c(Cl)c3)no2)cc1,MIC,Staphylococcus aureus [1],≥ 128 µg/mL
Oc1ccc(-c2nc(-c3ccc(Sc4cccc(Br)c4)cc3)no2)cc1,MIC,Staphylococcus aureus [1],8 µg/mL
Cl.Nc1ccc(-c2noc(-c3ccc(O)cc3)n2)cc1,MIC,Staphylococcus aureus [1],≥ 256 µg/mL
Cn1c2ccccc2c2cc(-c3noc(-c4ccc(O)cc4)n3)ccc21,MIC,Staphylococcus aureus [1],≥ 128 µg/mL
Oc1ccc(-c2nc(-c3ccc(Nc4ccc(F)cc4)cc3)no2)cc1,MIC,Staphylococcus aureus [1],≥ 128 µg/mL
O=[N+]([O-])c1cc(Oc2ccc(C(F)(F)F)cc2)ccc1-c1noc(-c2ccc(O)cc2)n1,MIC,Staphylococcus aureus [1],4 µg/mL
Cn1ccc2ccc(-c3noc(-c4ccc(O)cc4)n3)cc21,MIC,Staphylococcus aureus [1],8 µg/mL
Oc1ccc(-c2nc(-c3ccc4c(c3)OCO4)no2)cc1,MIC,Staphylococcus aureus [1],≥ 128 µg/mL
Oc1ccc(-c2nc(-c3ccc(Oc4ccc(C(F)(F)F)cc4)c(F)c3)no2)cc1,MIC,Staphylococcus aureus [1],8 µg/mL
COc1ccc(-c2noc(-c3ccc(O)cc3)n2)cc1OC,MIC,Staphylococcus aureus [1],≥ 500 µg/mL
c1cc2cc(-c3nc(-c4ccc5c(c4)OCO5)no3)ccc2[nH]1,MIC,Staphylococcus aureus [1],≥ 128 µg/mL
Oc1ccc(-c2nc(-c3ccc4occc4c3)no2)cc1,MIC,Staphylococcus aureus [1],64 µg/mL
Oc1ccc(-c2nc(-c3ccc(N4CCOCC4)cc3)no2)cc1,MIC,Staphylococcus aureus [1],≥ 128 µg/mL
Oc1ccc(-c2nc(-c3ccc4c(c3)C=CCO4)no2)cc1,MIC,Staphylococcus aureus [1],≥ 128 µg/mL
Clc1cc(Cl)cc(N2CCN(c3noc(-c4ccc5[nH]ccc5c4)n3)CC2)c1,MIC,Staphylococcus aureus [1],≥ 128 µg/mL
Oc1ccc(-c2nc(-c3ccc(N(Cc4ccccc4)c4ccccc4)cc3)no2)cc1,MIC,Staphylococcus aureus [1],≥ 128 µg/mL
Oc1ccc(-c2nc(-c3ccc(N4CCNCC4)cc3)no2)cc1,MIC,Staphylococcus aureus [1],32 µg/mL
C=CCOc1cc(-c2noc(-c3ccc(O)cc3)n2)ccc1Oc1ccc(C(F)(F)F)cc1,MIC,Staphylococcus aureus [1],8 µg/mL
Oc1ccc(-c2nc(-c3ccc4[nH]c5ccccc5c4c3)no2)cc1,MIC,Staphylococcus aureus [1],≥ 128 µg/mL
[O-][S+](c1ccccc1)c1ccc(-c2noc(-c3ccc(O)cc3)n2)cc1 (stereo not drawn),MIC,Staphylococcus aureus [1],≥ 128 µg/mL
O=C(Nc1ccc(-c2noc(-c3ccc(O)cc3)n2)cc1)c1ccccc1,MIC,Staphylococcus aureus [1],≥ 500 µg/mL
Clc1c[nH]nc1-c1nc(-c2ccc3c(c2)OCO3)no1,MIC,Staphylococcus aureus [1],≥ 128 µg/mL
Oc1ccc(-c2nc(N3CCN(c4cccc(Cl)c4)CC3)no2)cc1,MIC,Staphylococcus aureus [1],≥ 128 µg/mL
Oc1ccc(-c2nc(-c3ccc(Nc4ccc(C(F)(F)F)cc4)cc3)no2)cc1,MIC,Staphylococcus aureus [1],32 µg/mL
Oc1ccc(-c2nc(-c3ccc(Sc4ccc(F)cc4)cc3)no2)cc1,MIC,Staphylococcus aureus [1],2 µg/mL
Oc1ccc(-c2nc(-c3ccc(Cc4ccccc4)cc3)no2)cc1,MIC,Staphylococcus aureus [1],≥ 128 µg/mL
O=C(c1ccccc1)c1ccc(-c2noc(-c3ccc(O)cc3)n2)cc1,MIC,Staphylococcus aureus [1],≥ 128 µg/mL
Nc1cc(-c2noc(-c3ccc(O)cc3)n2)ccc1Oc1ccc(C(F)(F)F)cc1,MIC,Staphylococcus aureus [1],≥ 128 µg/mL
Oc1ccc(-c2nc(-c3ccc(Sc4ccccc4)cc3)no2)cc1,MIC,Staphylococcus aureus [1],2 µg/mL
Oc1ccc(-c2nc(-c3ccc(Sc4ccc(C(F)(F)F)cc4)cc3)no2)cc1,MIC,Enterococcus faecalis [2],2 µg/mL
same,MIC,Enterococcus faecalis [3],2 µg/mL
same,MIC,Staphylococcus aureus [4],2 µg/mL
same,MIC,Bacillus cereus,8 µg/mL
same,MIC,Staphylococcus aureus [5],2 µg/mL
same,MIC,Enterococcus faecium [6],2 µg/mL
same,MIC,[7],2 µg/mL
same,MIC,Enterococcus faecalis [8],2 µg/mL
same,MIC,Staphylococcus aureus [9],2 µg/mL
same,MIC,Enterococcus faecium [10],2 µg/mL
same,MIC,[11],2 µg/mL
same,MIC,Staphylococcus aureus [12],2 µg/mL
same,MIC,Staphylococcus aureus [13],2 µg/mL
same,MIC,Staphylococcus aureus [1],2 µg/mL
same,MIC,Staphylococcus aureus [14],2 µg/mL
same,MIC,Enterococcus faecium [15],2 µg/mL
same,MIC,Bacillus licheniformis,1 µg/mL
CN[C@H](CC(C)C)C(=O)N[C@H]1C(=O)N[C@@H](CC(N)=O)C(=O)N[C@H]2C(=O)N[C@H]3C(=O)N[C@H](C(=O)N[C@H](C(=O)O)c4cc(O)cc(O)c4-c4cc3ccc4O)[C@H](O)c3ccc(c(Cl)c3)Oc3cc2cc(c3O[C@@H]2O[C@H](CO)[C@@H](O)[C@H](O)[C@H]2O[C@H]2C[C@](C)(N)[C@H](O)[C@H](C)O2)Oc2ccc(cc2Cl)[C@H]1O [VANCOMYCIN],MIC,Enterococcus faecalis [2],1 µg/mL
same,MIC,Enterococcus faecalis [3],2 µg/mL
same,MIC,Staphylococcus aureus [4],64 µg/mL
same,MIC,Enterococcus faecium [6],256 µg/mL
same,MIC,[7],2 µg/mL
same,MIC,Enterococcus faecalis [8],128 µg/mL
same,MIC,[11],16 µg/mL
same,MIC,Staphylococcus aureus [14],512 µg/mL
O=[N+]([O-])c1cc(-c2noc(-c3ccc(O)cc3)n2)ccc1Oc1ccc(C(F)(F)F)cc1,MIC,Staphylococcus aureus [1],8 µg/mL
Clc1c[nH]nc1-c1nc(N2CCN(c3ccccc3)CC2)no1,MIC,Staphylococcus aureus [1],≥ 128 µg/mL
Oc1ccc(-c2nc(-c3ccc(Oc4ccc(C(F)(F)F)cc4)c(I)c3)no2)cc1,MIC,Staphylococcus aureus [1],4 µg/mL
CC(C)(C)OC(=O)Nc1ccc(-c2noc(-c3ccc(O)cc3)n2)cc1,MIC,Staphylococcus aureus [1],8 µg/mL
CN1CCN(c2ccc(-c3noc(-c4ccc(O)cc4)n3)cc2)CC1,MIC,Staphylococcus aureus [1],≥ 128 µg/mL
Oc1ccc(-c2nc(-c3ccc(Oc4ccc(C(F)(F)F)cc4)c(O)c3)no2)cc1,MIC,Enterococcus faecalis [2],8 µg/mL
same,MIC,Enterococcus faecalis [3],8 µg/mL
same,MIC,Staphylococcus aureus [4],8 µg/mL
same,MIC,Bacillus cereus,8 µg/mL
same,MIC,Staphylococcus aureus [5],16 µg/mL
same,MIC,Enterococcus faecium [6],8 µg/mL
same,MIC,[7],8 µg/mL
same,MIC,Enterococcus faecalis [8],16 µg/mL
same,MIC,Staphylococcus aureus [9],16 µg/mL
same,MIC,Enterococcus faecium [10],8 µg/mL
same,MIC,[11],16 µg/mL
same,MIC,Staphylococcus aureus [12],8 µg/mL
same,MIC,Staphylococcus aureus [13],8 µg/mL
same,MIC,Staphylococcus aureus [1],2 µg/mL
same,MIC,Staphylococcus aureus [14],8 µg/mL
same,MIC,Enterococcus faecium [15],8 µg/mL
same,MIC,Bacillus licheniformis,16 µg/mL
[N-]=[N+]=Nc1cc(-c2noc(-c3ccc(O)cc3)n2)ccc1Oc1ccc(C(F)(F)F)cc1,MIC,Enterococcus faecalis [2],4 µg/mL
same,MIC,Enterococcus faecalis [3],2 µg/mL
same,MIC,Staphylococcus aureus [4],2 µg/mL
same,MIC,Bacillus cereus,4 µg/mL
same,MIC,Staphylococcus aureus [5],4 µg/mL
same,MIC,Enterococcus faecium [6],4 µg/mL
same,MIC,[7],2 µg/mL
same,MIC,Enterococcus faecalis [8],4 µg/mL
same,MIC,Staphylococcus aureus [9],4 µg/mL
same,MIC,Enterococcus faecium [10],4 µg/mL
same,MIC,[11],2 µg/mL
same,MIC,Staphylococcus aureus [12],4 µg/mL
same,MIC,Staphylococcus aureus [13],4 µg/mL
same,MIC,Staphylococcus aureus [1],2 µg/mL
same,MIC,Staphylococcus aureus [14],2 µg/mL
same,MIC,Enterococcus faecium [15],4 µg/mL
same,MIC,Bacillus licheniformis,4 µg/mL
